These are literature values, as cited in patent US20130281394A1, “Chemosensory Receptor Ligand-Based Therapies” (ELCELYX THERAPEUTICS, INC., priority 2010, published 2013).

Like-named read-outs stand apart in the source and are kept apart here.

In one data set the target is T1, sweet receptor (Homo sapiens, UniProt Q7RTX0+Q8TE23).
T1 sequence (Q8TE23 20-839): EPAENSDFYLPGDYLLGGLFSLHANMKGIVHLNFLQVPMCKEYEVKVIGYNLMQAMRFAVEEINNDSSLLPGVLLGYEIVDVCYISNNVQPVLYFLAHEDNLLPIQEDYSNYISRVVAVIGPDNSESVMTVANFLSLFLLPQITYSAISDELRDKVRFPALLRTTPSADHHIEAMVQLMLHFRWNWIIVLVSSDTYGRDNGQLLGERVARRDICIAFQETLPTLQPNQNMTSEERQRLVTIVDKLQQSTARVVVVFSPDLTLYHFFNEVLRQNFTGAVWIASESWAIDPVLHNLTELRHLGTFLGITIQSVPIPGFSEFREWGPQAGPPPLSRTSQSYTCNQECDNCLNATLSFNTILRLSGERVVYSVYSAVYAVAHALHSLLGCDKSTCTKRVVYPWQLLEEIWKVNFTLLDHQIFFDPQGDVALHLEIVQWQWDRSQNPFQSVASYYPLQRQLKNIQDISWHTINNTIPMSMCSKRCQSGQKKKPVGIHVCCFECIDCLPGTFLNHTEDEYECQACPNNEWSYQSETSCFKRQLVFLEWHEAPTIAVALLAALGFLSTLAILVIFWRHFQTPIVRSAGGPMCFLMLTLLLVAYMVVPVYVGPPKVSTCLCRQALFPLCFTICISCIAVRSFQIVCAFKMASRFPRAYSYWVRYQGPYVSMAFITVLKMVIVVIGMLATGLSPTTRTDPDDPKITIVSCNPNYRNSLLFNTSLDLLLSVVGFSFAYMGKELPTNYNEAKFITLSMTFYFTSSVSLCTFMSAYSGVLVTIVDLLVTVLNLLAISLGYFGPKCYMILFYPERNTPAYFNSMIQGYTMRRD
T1 sequence (Q7RTX0 21-852): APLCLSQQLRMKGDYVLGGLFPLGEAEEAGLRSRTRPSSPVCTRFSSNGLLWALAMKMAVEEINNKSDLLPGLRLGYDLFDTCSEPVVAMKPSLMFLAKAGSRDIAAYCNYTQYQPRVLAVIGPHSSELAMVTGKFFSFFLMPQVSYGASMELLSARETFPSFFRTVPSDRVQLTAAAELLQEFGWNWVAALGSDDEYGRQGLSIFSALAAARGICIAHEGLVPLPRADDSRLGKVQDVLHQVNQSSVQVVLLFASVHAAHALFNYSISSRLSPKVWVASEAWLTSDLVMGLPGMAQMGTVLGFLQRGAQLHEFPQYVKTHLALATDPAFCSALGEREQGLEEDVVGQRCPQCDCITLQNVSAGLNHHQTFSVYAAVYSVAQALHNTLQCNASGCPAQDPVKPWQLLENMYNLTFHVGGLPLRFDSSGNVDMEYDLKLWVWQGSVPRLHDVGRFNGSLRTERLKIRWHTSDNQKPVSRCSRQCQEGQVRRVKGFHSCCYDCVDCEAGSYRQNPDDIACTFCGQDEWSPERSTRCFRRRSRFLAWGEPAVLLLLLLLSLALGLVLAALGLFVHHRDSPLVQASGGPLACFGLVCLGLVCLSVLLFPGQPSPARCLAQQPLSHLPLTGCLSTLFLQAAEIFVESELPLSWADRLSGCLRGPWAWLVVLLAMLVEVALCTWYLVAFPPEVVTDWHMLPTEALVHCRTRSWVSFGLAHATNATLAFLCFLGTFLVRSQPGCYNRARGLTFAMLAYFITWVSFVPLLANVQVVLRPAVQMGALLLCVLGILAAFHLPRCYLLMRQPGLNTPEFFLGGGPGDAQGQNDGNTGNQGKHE
Conditions: relative sweetness on a weight comparison basis to sucrose (= 1.0); ranges: varied with the concentration of sucrose.

The next data set relates to gut hormones. The following applies: humans.
The conditions of data set [1]: rats.
The test system of data set [2] is GLP-1. Conditions: humans.
Data set [3] deals with GLP-1. Conditions: rats, with a DPP-IV inhibitor.
In data set [4] the test system is gut hormone release. Conditions: instillation into the duodenum of humans.
Data set [5] relates to gut hormone release. Conditions: rats.
For data set [6] the following is noted: patients with jejunostomy.
For data set [7] the following is noted: in vivo.

With `Oc1cc(O)c2c(c1)O[C@H](c1cc(O)c(O)c(O)c1)[C@H](O)C2` [Epigallocatechin], the Taste quality result in the data set with bitter receptor is reported as “Bitter with sweet”.

Regarding `O=c1c(-c2ccc(O)cc2)coc2cc(O)cc(O)c12` [Genistein], in the data set with bitter receptor, the Taste quality result is reported as “Bitter or astringent”. Regarding `O=c1c(-c2ccc(O)cc2)coc2cc(O[C@@H]3O[C@H](CO)[C@@H](O)[C@H](O)[C@H]3O)cc(O)c12` [Genistin], the Taste quality entry in the data set on bitter receptor was “Astringent”. `O=S(=O)(O)ON=C(Cc1c[nH]c2ccccc12)S[C@@H]1O[C@H](CO)[C@@H](O)[C@H](O)[C@H]1O` [Glucobrassicin]: in the data set on bitter receptor, the Taste quality result is “Bitter”. `C=CC1CNC(=S)O1` (centres unmarked) [Goitrin 5-vinyl-2-oxazolidine thione, 5-vinyl-2-oxazolidine thione]: the Taste quality result in the data set on bitter receptor is reported as “Bitter”. Regarding `CC1(C)O[C@H]2CC(=O)OC[C@]23[C@H]2CC[C@@](C)([C@@H](O[C@@H]4O[C@H](CO)[C@@H](O)[C@H](O)[C@H]4O)c4ccoc4)[C@@]4(O[C@@H]4C(=O)O)[C@]2(C)C(=O)C[C@@H]13` [Limonin glucoside], the Taste quality result in the data set on bitter receptor is on record as “Tasteless”. Turning to `CC1(C)O[C@H]2CC(=O)OC[C@]23[C@H]2CC[C@@]4(C)[C@H](c5ccoc5)OC(=O)[C@H]5O[C@]54[C@]2(C)C(=O)C[C@@H]13` [Limonin], the Taste quality entry in the data set on bitter receptor was “Bitter”. For the molecule `C[C@@H]1O[C@@H](O[C@H]2[C@H](Oc3cc(O)c4c(c3)O[C@H](c3ccc(O)cc3)CC4=O)O[C@H](CO)[C@@H](O)[C@@H]2O)[C@H](O)[C@H](O)[C@H]1O` [Naringin], the Taste quality result in the data set on bitter receptor is “Bitter”. `COc1ccc(-c2cc(=O)c3c(OC)c(OC)c(OC)c(OC)c3o2)cc1OC` [Nobiletin]: the Taste quality result with bitter receptor was “Bitter”. Turning to `CC(=O)O[C@H]1CC(=O)OC(C)(C)[C@@H]2CC(=O)[C@]3(C)[C@H](CC[C@@]4(C)[C@H](c5ccoc5)OC(=O)[C@H]5O[C@]543)[C@@]12C` [Nomilin], the Taste quality result in the data set on bitter receptor is given as “Bitter”.

Consider `C=C[C@H](O)CC(=NOS(=O)(=O)O)S[C@@H]1O[C@H](CO)[C@@H](O)[C@H](O)[C@H]1O` [Progoitrin], for which, in the data set on bitter receptor, the Taste quality result is given as “Bitter”. With `O=c1c(O)c(-c2ccc(O)c(O)c2)oc2cc(O)cc(O)c12` [Quercetin], in the data set with bitter receptor, the Taste quality result is reported as “Bitter”. `C=C1C[C@@]23CC[C@H]4[C@@](C)(CCC[C@@]4(C)C(=O)O[C@@H]4O[C@H](CO)[C@@H](O)[C@H](O)[C@H]4O)[C@@H]2CC[C@]1(O[C@@H]1O[C@H](CO)[C@@H](O)[C@H](O[C@@H]2O[C@H](CO)[C@@H](O)[C@H](O)[C@H]2O)[C@H]1O[C@@H]1O[C@H](CO)[C@@H](O)[C@H](O)[C@H]1O)C3` [Rebaudioside A]: the Sweetness/potency at sweet receptor is listed as 242. Moreover, the “alterations of gut hormones in the circulation” value with gut hormones is “no alterations”.

For the molecule `COc1ccc(-c2cc(=O)c3c(OC)c(OC)c(OC)cc3o2)cc1OC` [Sinensetin], the Taste quality result in the data set on bitter receptor was “Bitter”.

`COc1ccc(-c2cc(=O)c3c(OC)c(OC)c(OC)c(OC)c3o2)cc1` [Tangeretin]: the Taste quality entry with bitter receptor is “Bitter”.

Take `O=c1c(-c2ccc(O)cc2)coc2cc(O)ccc12` [daidzein]: in the data set on bitter receptor, the Taste quality result was “Bitter or astringent”. For `N[C@@H](CCC(=O)O)C(=O)O` [glutamate], in data set [1], the abdominal fat entry is recorded as “reduced” and the weight gain result is on record as “decreased”. On to `OCCN1C[C@H](O)[C@@H](O)[C@H](O)[C@H]1CO` [miglitol], for which, in the data set with GLP-1 [2], the “post-prandial GLP-1 levels” value is reported as “increase”. The “increase in GLP-1” value in the data set on GLP-1 [3] is reported as “synergistic”. For the molecule `OC[C@H]1O[C@H](O[C@]2(CCl)O[C@H](CCl)[C@@H](O)[C@@H]2O)[C@H](O)[C@@H](O)[C@H]1Cl` [sucralose], the gut hormone release entry in the data set on gut hormone release [4] and with gut hormone release [5] was “no effect” in each case. Turning to “GLP-2: gut hormone administered to patients with jejunostomy (HADGSFSDEMNTILDNLAARDFINWLIQTKITD; Glucagon-like peptide 2; UniProt P01275 146-178, looked up)”, in data set [6], the “gastric emptying of solids and liquids” value is on record as “prolong”; the “intestinal absorption of energy and intestinal wet weight absorption” value is on record as “improve”. For the molecule glucagon-like peptide-1 [GLP-1], the “portal:arterial gradient” value in data set [7] was > 2:1.
